Assay results published in patent US11155525B2 (Sanford Burnham Prebys Medical Discovery Institute, priority 2015, dated 2021).

target: T1, human apelin receptor (Homo sapiens, UniProt P35414); assay: Measurement of apelin receptor agonist activity (cell-based assay determining the amount of intracellular cAMP); details: CHO cells stably expressing the human apelin receptor, Forskolin 10 μM, 30 minutes, 100% efficacy = [Pyr1]-apelin-13 0.300 μM, concentration giving 50% efficacy
T1 construct: host or cells: CHO cells
T1 sequence (P35414 1-380): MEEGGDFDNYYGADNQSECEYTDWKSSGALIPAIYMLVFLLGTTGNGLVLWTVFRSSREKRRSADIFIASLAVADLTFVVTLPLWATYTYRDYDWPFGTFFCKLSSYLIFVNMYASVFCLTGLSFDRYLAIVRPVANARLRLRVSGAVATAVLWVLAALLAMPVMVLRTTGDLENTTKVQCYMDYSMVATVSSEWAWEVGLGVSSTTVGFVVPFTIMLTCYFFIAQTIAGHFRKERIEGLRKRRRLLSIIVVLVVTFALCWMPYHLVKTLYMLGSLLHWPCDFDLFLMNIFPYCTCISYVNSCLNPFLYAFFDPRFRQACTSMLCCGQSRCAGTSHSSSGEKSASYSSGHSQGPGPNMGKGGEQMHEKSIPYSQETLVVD
Method: Measurement of Apelin Receptor Agonist Activity
The apelin receptor agonist activity of the compound represented by formula (I) or (II) of the present invention was measured by cell-based assay for determining the amount of intracellular cAMP.
CHO cells (DiscoveRx Corp.) stably expressing the human apelin receptor were inoculated to wells of a microtiter plate and cultured overnight at 37° C. under conditions of 5% CO2.
Each test compound and Forskolin were added to the wells at the same time. Specifically, the test compound dissolved in DMSO was diluted with a Forskolin-containing buffer [DMEM/F-12, HEPES, no phenol red (#11039, GIBCO)] to prepare a mixed solution containing the test compound at a final concentration of […] (common ratio: 3, serial dilution: 11), Forskolin at a final concentration of 10 μM, and DMSO at a final concentration of 0.3% v/v, which was then added to the wells (N═4).
After 30 minutes, the cells were lysed, and HitHunter cAMP XS+ Assay #90-0075L (DiscoveRx Corp.) was added to the cell lysate. The mixture was left overnight, and the resulting chemiluminescence signals were then detected using Analyst GT (Molecular Devices LLC.) to determine the amount of cAMP.
The amount of cAMP determined by the addition of a positive control [Pyr1]-apelin-13 (final concentration: 0.300 μM) and Forskolin (final concentration: 10 μM) at the same time was used as an index to define 100% efficacy. The amount of cAMP determined by the addition of Forskolin (final concentration: 10 μM) alone was used as an index to define 0% efficacy.
A dose response curve was prepared from the final concentration of the test compound and the determined amount of cAMP using Sigmaplot 12.0.

EC50 [nM]	Structure (SMILES)
171	COc1cccc(OC)c1-n1c(/C=C/C(N)=O)nnc1-c1ccc(C)o1 [Example 19, (2E)-3-[4-(2,6-Dimethoxyphenyl)-5-(5-methylfuran-2-yl)-4H-1,2,4-triazol-3-yl]prop-2-enamide]
159	COc1cccc(OC)c1-n1c(CCC(=O)O)nnc1-c1ccc(C)o1 [Example 13, 3-[4-(2,6-Dimethoxyphenyl)-5-(5-methylfuran-2-yl)-4H-1,2,4-triazol-3-yl]propanoic acid]
103	COc1cccc(OC)c1-n1c(SCP(=O)(O)O)nnc1-c1ccc(C)o1 [Example 102, ({[4-(2,6-Dimethoxyphenyl)-5-(5-methylfuran-2-yl)-4H-1,2,4-triazol-3-yl]sulfanyl}methyl)phosphonic acid]
815	COc1cccc(OC)c1-n1c(CO)nnc1-c1ccc(C)o1 [Example 7, [4-(2,6-Dimethoxyphenyl)-5-(5-methylfuran-2-yl)-4H-1,2,4-triazol-3-yl]methanol]
271	COc1cccc(OC)c1-n1c(/C=C/C(C)O)nnc1-c1ccc(C)o1 (stereo not shown) [Example 23, (3E)-4-[4-(2,6-Dimethoxyphenyl)-5-(5-methylfuran-2-yl)-4H-1,2,4-triazol-3-yl]but-3-en-2-ol]
108	COc1cccc(OC)c1-n1c(SC(C)(C)C(=O)O)nnc1-c1ccc(C)o1 [Example 36, 2-{[4-(2,6-Dimethoxyphenyl)-5-(5-methylfuran-2-yl)-4H-1,2,4-triazol-3-yl]sulfanyl}-2-methylpropanoic acid]
1070	COc1cccc(OC)c1-n1c(CNS(C)(=O)=O)nnc1-c1ccc(C)o1 [Example 71, N-{[4-(2,6-Dimethoxyphenyl)-5-(5-methylfuran-2-yl)-4H-1,2,4-triazol-3-yl]methyl}methanesulfonamide]
35	COc1cccc(OC)c1-n1c(OCC(=O)O)nnc1-c1ccc(C)o1 [Example 88, {[4-(2,6-Dimethoxyphenyl)-5-(5-methylfuran-2-yl)-4H-1,2,4-triazol-3-yl]oxy}acetic acid]
122	CCOC(=O)CSc1nnc(-c2ccc(C)o2)n1-c1c(OC)cccc1OC [Example 4, Ethyl {[4-(2,6-dimethoxyphenyl)-5-(5-methylfuran-2-yl)-4H-1,2,4-triazol-3-yl]sulfanyl}acetate]
751	COc1cccc(OC)c1-n1c(CCC(C)=O)nnc1-c1ccc(C)o1 [Example 24, 4-[4-(2,6-Dimethoxyphenyl)-5-(5-methylfuran-2-yl)-4H-1,2,4-triazol-3-yl]butan-2-one]
5460	COc1cccc(OC)c1-n1c(SCc2ccc(C(=O)O)cc2)nnc1-c1ccc(C)o1 [Example 82, 4-({[4-(2,6-Dimethoxyphenyl)-5-(5-methylfuran-2-yl)-4H-1,2,4-triazol-3-yl]sulfanyl}methyl)benzoic acid]
1210	COc1cccc(OC)c1-n1c(-c2ccccc2)nnc1-c1ccc(C)o1 [Example 57, 4-(2,6-Dimethoxyphenyl)-3-(5-methylfuran-2-yl)-5-phenyl-4H-1,2,4-triazole]
71	COc1cccc(OC)c1-n1c(SCc2nc(=O)o[nH]2)nnc1-c1ccc(C)o1 [Example 94, 3-({[4-(2,6-Dimethoxyphenyl)-5-(5-methylfuran-2-yl)-4H-1,2,4-triazol-3-yl]sulfanyl}methyl)-1,2,4-oxadiazol-5(2H)-one]
111	CCOC(=O)C(=O)/C=C/c1nnc(-c2ccc(C)o2)n1-c1c(OC)cccc1OC [Example 51, Ethyl (3E)-4-[4-(2,6-dimethoxyphenyl)-5-(5-methylfuran-2-yl)-4H-1,2,4-triazol-3-yl]-2-oxobut-3-enoate]
39	COc1cccc(OC)c1-n1c(SC(C(=O)O)C(C)C)nnc1-c1ccc(C)o1 (stereo not shown) [Example 43, 2-{[4-(2,6-Dimethoxyphenyl)-5-(5-methylfuran-2-yl)-4H-1,2,4-triazol-3-yl]sulfanyl}-3-methylbutanoic acid]
1210	COc1cccc(OC)c1-n1c(Br)nnc1-c1ccc(C)o1 [Example 44, 3-Bromo-4-(2,6-dimethoxyphenyl)-5-(5-methylfuran-2-yl)-4H-1,2,4-triazole]

More lines, now with the values behind:

Structure (SMILES)	EC50 [nM]
COc1cccc(OC)c1-n1c(SCC(=O)O)nnc1-c1cc(C)c(C)o1 [Example 63, {[4-(2,6-Dimethoxyphenyl)-5-(4,5-dimethylfuran-2-yl)-4H-1,2,4-triazol-3-yl]sulfanyl}acetic acid]	716
COC(=O)c1ccccc1-c1nnc(-c2ccc(C)o2)n1-c1c(OC)cccc1OC [Example 58, Methyl 2-[4-(2,6-dimethoxyphenyl)-5-(5-methyl-2-furyl)-4H-1,2,4-triazol-3-yl]benzoate]	2800
COc1cccc(OC)c1-n1c(SCC(=O)O)nnc1-c1ccoc1 [Example 62, {[4-(2,6-Dimethoxyphenyl)-5-(furan-3-yl)-4H-1,2,4-triazol-3-yl]sulfanyl}acetic acid]	808
COC(=O)[C@@H]1C[C@@H](O)CN1C(=O)/C=C/c1nnc(-c2ccc(C)o2)n1-c1c(OC)cccc1OC [Example 91, Methyl (4R)-1-{(2E)-3-[4-(2,6-dimethoxyphenyl)-5-(5-methylfuran-2-yl)-4H-1,2,4-triazol-3-yl]prop-2-enoyl}-4-hydroxy-L-prolinate]	351
COc1cccc(OC)c1-n1c(/C=C/c2cc(=O)n3cc(C)ccc3n2)nnc1-c1ccc(C)o1 [Example 52, 2-{(E)-2-[4-(2,6-Dimethoxyphenyl)-5-(5-methylfuran-2-yl)-4H-1,2,4-triazol-3-yl]ethenyl}-7-methyl-4H-pyrido[1,2-a]pyrimidin-4-one]	217
COc1cccc(OC)c1-n1c(/C=C/C(=O)N2CCC[C@H]2C(=O)O)nnc1-c1ccc(C)o1 [Example 93, 1-{(2E)-3-[4-(2,6-Dimethoxyphenyl)-5-(5-methylfuran-2-yl)-4H-1,2,4-triazol-3-yl]prop-2-enoyl}-L-proline]	364
COc1cccc(OC)c1-n1c(SCc2cccc(C(N)=O)c2)nnc1-c1ccc(C)o1 [Example 106, 3-({[4-(2,6-Dimethoxyphenyl)-5-(5-methylfuran-2-yl)-4H-1,2,4-triazol-3-yl]sulfanyl}methyl)benzamide]	793
COc1cccc(OC)c1-n1c(SCc2cccnn2)nnc1-c1ccc(C)o1 [Example 75, 3-({[4-(2,6-Dimethoxyphenyl)-5-(5-methylfuran-2-yl)-4H-1,2,4-triazol-3-yl]sulfanyl}methyl)pyridazine]	128
COc1cccc(OC)c1-n1c(SCc2ccc(C(N)=O)cc2)nnc1-c1ccc(C)o1 [Example 105, 4-({[4-(2,6-Dimethoxyphenyl)-5-(5-methylfuran-2-yl)-4H-1,2,4-triazol-3-yl]sulfanyl}methyl)benzamide]	1200
COc1cccc(OC)c1-n1c(SCc2cc(=O)[nH][nH]2)nnc1-c1ccc(C)o1 [Example 104, 5-({[4-(2,6-Dimethoxyphenyl)-5-(5-methylfuran-2-yl)-4H-1,2,4-triazol-3-yl]sulfanyl}methyl)-1,2-dihydro-3H-pyrazol-3-one]	48
COc1cccc(OC)c1-n1c(SCC(=O)O)nnc1-c1cccnc1 [Example 27, {[4-(2,6-Dimethoxyphenyl)-5-(pyridin-3-yl)-4H-1,2,4-triazol-3-yl]sulfanyl}acetic acid]	2870
COc1cccc(OC)c1-n1c(SCc2cc[nH]c(=O)c2)nnc1-c1ccc(C)o1 [Example 18, 4-({[4-(2,6-Dimethoxyphenyl)-5-(5-methylfuran-2-yl)-4H-1,2,4-triazol-3-yl]sulfanyl}methyl)pyridin-2(1H)-one]	561
COc1cccc(OC)c1-n1c(SCc2cc(=O)[nH]c(=O)[nH]2)nnc1-c1ccc(C)o1 [Example 14, 6-({[4-(2,6-Dimethoxyphenyl)-5-(5-methylfuran-2-yl)-4H-1,2,4-triazol-3-yl]sulfanyl}methyl)pyrimidine-2,4(1H,3H)-dione]	424
COc1cccc(OC)c1-n1c(SCc2cc(=O)n3cc(C)ccc3n2)nnc1-c1ccc(C)o1 [Example 2, 2-({[4-(2,6-Dimethoxyphenyl)-5-(5-methylfuran-2-yl)-4H-1,2,4-triazol-3-yl]sulfanyl}methyl)-7-methyl-4H-pyrido[1,2-a]pyrimidin-4-one]	1
COC(=O)[C@@H]1CCCN1C(=O)/C=C/c1nnc(-c2ccc(C)o2)n1-c1c(OC)cccc1OC [Example 90, Methyl 1-{(2E)-3-[4-(2,6-dimethoxyphenyl)-5-(5-methylfuran-2-yl)-4H-1,2,4-triazol-3-yl]prop-2-enoyl}-L-prolinate]	503
